The subject of assay [1] is Streptococcus faecalis X66. In kind it is cell-based. The source says:
(§1) Table I summarizes the minimal inhibitory concentrations (MIC's) at which the two illustrative compounds, anhydro-LY146032 and isomer-LY146032, inhibit certain organisms, as determined by standard agar-dilution assays.

For assay [2], the system named is Staphylacoccus aureus V41 (penicillin-resistant strain). It counts as cell-based.
Excerpt: as §1

In assay [3] the test system is Staphylacoccus aureus X400 (methicillin-resistant strain). In kind it is cell-based.
Excerpt: as §1

Assay [4] concerns Streptococcus faecalis 2041. In kind it is cell-based.
Excerpt: as §1

Assay [5] concerns Staphylacoccus aureus XL1. In kind it is cell-based.
Excerpt: as §1

For assay [6], the system named is Staphylacoccus epidermidis 222. It counts as cell-based.
Excerpt: as §1

Assay [7] concerns Streptococcus pyogenes C203. In kind it is cell-based.
Excerpt: as §1

The test system of assay [8] is Streptococcus pyogenes. Nature of the assay: Experimental infection in mice, subcutaneous ED50. In kind it is in vivo. The conditions noted are these: two doses. The procedure:
(§2) The new derivatives of this invention have also shown in vivo antimicrobial activity against experimental bacterial infections. When two doses of test compound were administered to mice in experimental infections, the activity observed was measured as an ED50 value [effective dose in mg/kg to protect 50% of the test animals: see Warren Wick, et al., J. Bacteriol. 81, 233-235 (1961)].

Assay [9] deals with Staphylococcus aueus. Nature of the assay: Experimental infection in mice, subcutaneous ED50. In kind it is in vivo. The settings on record: two doses. The procedure: as §2
In assay [10] the test system is Streptococcus pneumoniae. Nature of the assay: Experimental infection in mice, subcutaneous ED50. In kind it is in vivo. The conditions noted are these: two doses. The procedure:
as §2

Assay [11] has as its system Haemophilus influenzae 76 (ampicillin-resistant strain). The experiment in a line: Agar-dilution MIC. In kind it is cell-based. Details: unit not given beside the values.
Excerpt: as §1

Assay [12] deals with Haemophilus influenzae CL (ampicillin-sensitive strain). The experiment in a line: Agar-dilution MIC. In kind it is cell-based.
Excerpt: as §1

Molecules are shown by their SMILES. In brackets after ≈: the same amount, converted by molar mass.

For the compound `CCCCCCCCCC(=O)N[C@@H](Cc1c[nH]c2ccccc12)C(=O)N[C@@H](CC(N)=O)C(=O)N[C@@H](CC(=O)O)C(=O)N[C@@H]1C(=O)NCC(=O)N[C@@H](CCCN)C(=O)N[C@@H](CC(=O)O)C(=O)N[C@H](C)C(=O)N[C@H](C(=O)O)CC(=O)NCC(=O)N[C@H](CO)C(=O)N[C@@H]([C@H](C)CC(=O)O)C(=O)N[C@@H](CC(=O)c2ccccc2N)C(=O)O[C@@H]1C` [Isomer-LY146032], the MIC was found to be 128 µg/mL (≈ 79 µM) in [1]; 8 µg/mL (≈ 4.94 µM) in assay [2]; 8 µg/mL (≈ 4.94 µM) in [3]; 32 µg/mL (≈ 19.7 µM) in assay [4]; 8 µg/mL (≈ 4.94 µM) in assay [5]; 8 µg/mL (≈ 4.94 µM) in assay [6]. The MIC in [7] was 2 µg/mL (≈ 1.23 µM); in assay [11], “—^ (>128)”; in assay [12], “—^f (>128)”. The figures for the “Subcutaneous ED50” value in assay [8], in assay [9] and in [10] were less than 1.25 mg/kg, 10.68 mg/kg and 3.40 mg/kg, respectively.

With `CCCCCCCCCC(=O)N[C@@H](Cc1c[nH]c2ccccc12)C(=O)N[C@@H](CC(N)=O)C(=O)N[C@@H](CC(=O)O)C(=O)N[C@@H]1C(=O)NCC(=O)N[C@@H](CCCN)C(=O)N[C@@H](CC(=O)O)C(=O)N[C@H](C)C(=O)N[C@H]2CC(=O)N(CC(=O)N[C@H](CO)C(=O)N[C@@H]([C@H](C)CC(=O)O)C(=O)N[C@@H](CC(=O)c3ccccc3N)C(=O)O[C@@H]1C)C2=O` [Anhydro-LY146032], the MIC in assay [1] amounted to 64 µg/mL (≈ 39.9 µM); in assay [2], 4 µg/mL (≈ 2.5 µM); in assay [3] it was 8 µg/mL (≈ 4.99 µM); in assay [4] it was 16 µg/mL (≈ 9.98 µM); in assay [5] it was 4 µg/mL (≈ 2.5 µM); in [6], 4 µg/mL (≈ 2.5 µM). Moreover, the MIC in assay [7] was 1 µg/mL (≈ 0.624 µM); in [11], “— (>128)”; in assay [12] it was “— (>128)”. For the same compound, the entries for the “Subcutaneous ED50” value in assay [8], in assay [9] and in assay [10] were 1.15 mg/kg, 9.05 mg/kg and 3.36 mg/kg, respectively.

The values above are taken from patent publication USRE39071E1, “Anhydro-and isomer-a-21978c cyclic peptides” (Eli Lilly and Company, priority 1987, dated 2006).
